The values below come from a melting point compilation (Tetko et al.; mined from patent text by program, amines drawn as free bases though some values may be those of a salt).

The term melting point denotes the temperature of the solid-liquid transition.

As for `Cc1sc(NC(=O)OC(C)(C)C)c(NC(=O)OC(C)(C)C)c1C#N`, the melting point was over 300 °C.

The compound `COc1cc2nc(C)nc(N3CCN(C(=O)Nc4ccc(Oc5ccccc5)cc4)CC3)c2cc1OC` displayed a melting point of 146 to 147 °C. On to `Cc1cccc(O[C@@H]2CCNC[C@H]2O)c1C` (relative stereo), for which the melting point was 127 to 129 °C.

In turn, `CCOC(=O)C1=C(COCCN)NC=C(C(=O)OC)C1c1cccc(C(F)(F)F)c1Cl` (stereo not given) registered a melting point of 122 °C. On to `COC(=O)C(C)c1ccc2c(=O)c3ccccc3ccc2c1` (stereo not given), for which the melting point lay within 37 to 39 °C. `O=C1CCC(N2C(=O)c3cccc(Nc4ccc5ccccc5c4)c3C2=O)C(=O)N1` (stereo not given) came in with a melting point of 235 to 237 °C. With `NC1=NS(=O)N=C1NCCCN1c2ccccc2CCc2ccccc21` (stereo not given) the figure was 227 to 230 °C; with `CCCOc1cccc2c1C(N)=NS(=O)(=O)N2`, 229 to 230 °C.

In the case of `COC(=O)C(O)C(O)C1CC1` (stereo not given), the melting point lay within 54 to 57 °C. To `CCOC(=O)C(=O)Nc1cc(Cl)c(Cl)c(Cl)c1[N+](=O)[O-]` belongs 84 °C. With `COc1cccc2c(Cl)c(C(=O)C(C)C)cnc12` the figure was 90 to 92 °C; with `CC(c1ccc2c(c1)[nH]c1ccccc12)n1ccnc1` (stereo not given), 157 to 158 °C; with `C[C@@H]1[C@@H](C(=O)Cc2ccccc2)C(=O)N1OCc1ccccc1`, 97 to 99 °C. With `O=C(O)c1cc(OCCOc2cccc3ccccc23)cc(OCCOc2cccc3ccccc23)c1` the figure was 213 to 215 °C. Take `ClC(Cl)=CCOc1cc(Cl)c(OCc2ccc(Cl)nc2)c(Cl)c1`: the melting point worked out at 93.3 °C. `CN1Cc2c(-c3nc(C4CC4)no3)ncn2-c2ccccc2C1=O` showed a melting point of 202 to 203 °C. On to `Nc1nc(Nc2ccc(N3CCOCC3)cc2)sc1C(=O)c1c(Cl)cncc1Cl`, for which the melting point was 292 °C. With `O=C(NCc1ccc(Cl)cc1)c1cn2c(CO)cc3cc(CC4CCOCC4)cc(c1=O)c32` the figure was 71 to 74 °C; with `CCCCC#CCCOc1ccc(/C=C/C(=O)Nc2ccccc2C(=O)O)cc1OC`, 169 to 170 °C. `CC1(C)CC(=O)Nc2cc(N)ccc21` returned a melting point of 161 to 163 °C. Consider `COc1ncc(C(F)(F)F)cc1-c1cccn2nc(Nc3ccc(C4CCN(CC(=O)N(C)C)CC4)cc3)nc12`, for which the melting point fell in the range of 122 to 124 °C. With `CNC(=S)NS(=O)(=O)c1cc(CCNC(=O)C=Cc2cccs2)ccc1OCC1CCCCO1` (stereo not given) the figure was 80 °C; with `CC(C)(C)c1cc(C(C)(C)C)n(Cc2ccc(CO)cc2)n1`, 121 to 122 °C; with `CC(=O)Nc1nc2c(Oc3cc(-c4ccc(C(F)(F)F)cc4N)ncn3)cccc2s1`, 160 to 161 °C. To `Oc1ccccc1-c1cc(-c2ccc3c(c2)OCO3)cc(-c2ccsc2)n1` belongs 120 to 121 °C. In turn, `Cn1c(S)nc(-c2ccccc2)c1-c1ccccc1` yielded a melting point of 179 to 182 °C. The compound `COc1cc2c(cc1OC)C(C)=[N+]([O-])C(c1ccccc1)N2` (stereo not given) gave a melting point of 178 to 182 °C.

In turn, `CC(=O)NC[C@H]1CN(c2ccc(-n3cccn3)c(F)c2)C(=O)O1` yielded a melting point of 183 to 184 °C. The compound `COC(=O)c1nc2n(c1C)-c1ccc(Cl)cc1C(c1ccccc1F)=NC2` displayed a melting point of 137 to 138 °C. Consider `C(=C1CCc2cccnc21)c1ccccc1`, for which the melting point was 74 to 75 °C. With `CCc1noc(-c2ccc(OCCC3CCN(c4ccc(C)nn4)CC3)cc2)n1`, the melting point came out at 122 °C. To `O=C1CCC(c2ccccc2F)c2ccccc2N1` (stereo not given) belongs 210 to 212 °C. With `Brc1ccc(C(Br)Br)nc1` the figure was 59 to 61 °C; with `CC1=C(C(=O)OC(C)C)[C@@H](c2cccc(Cl)c2)NC(=O)N1C(N)=O`, 131 to 133 °C; with `COc1cc(Nc2c(C#N)cnc3cc(Cl)c([N+](=O)[O-])cc23)cc(OC)c1OC`, 215 to 217 °C. As to `CCOC(=O)C(=O)Nc1nc(CN2CCN(C(c3ccccc3)c3ccccc3)CC2)c(Cl)s1`, the melting point lay within 154 to 156 °C.

The compound `CC(C)=CCOc1ccc2c(=O)c(C)c(-c3ccccc3)oc2c1C(=O)C=Cc1cccs1` registered a melting point of 158 to 160 °C.

Compound `CCOC(=O)c1c2c(n(CC(N)=O)c1C)C(=O)C(=O)c1ccc(Br)cc1-2` yielded a melting point of over 250 °C. `CC(C)(C)c1cc(C=C(C#N)C#N)cc(Cl)c1O` had a melting point of 173 °C.

For `CNc1coc2ccccc2c1=S`, the melting point turned out to be 134 °C. Compound `O=C(Nc1ccc(N2CCC(NC[C@H](O)COc3cccc4[nH]c(=O)[nH]c34)CC2)cc1)c1ccc2c(c1)OCO2` came in with a melting point of 160 to 169 °C. To `CCOc1nn(Cc2ccc(OCc3nc(-c4ccccc4)oc3C)c(OC)c2)cc1CCC(=O)O` belongs 122 to 123 °C; to `Cc1ccc(NCc2ccc(N(C)C)cc2)c(C)c1`, 79 to 80 °C; to `COCCNC1CCc2cc(Nc3ncc(Cl)c(Nc4c(OC)ccc5c4CN(S(C)(=O)=O)CC(=O)N5)n3)c(OC)cc2CC1` (stereo not given), 110 to 114 °C. Consider `NC(=O)c1nc(-c2ccccc2)c[nH]1`, for which the melting point was 210 to 211 °C. To `CCN1CC(OCC2(C)CC2)(C(F)(F)F)c2cc(Cl)ccc2NC1=O` (stereo not given) belongs 171 to 172 °C. To `CCOc1ccccc1C1CC(C(C)(C)C)=NN1c1ccc(C(=O)O)cc1` (stereo not given) belongs 213 °C; to `CCc1nc(-c2ncn3c2CCCc2ccccc2-3)no1`, 151 °C. Compound `N=C(N)c1c[nH]c2ccc(CCNC(=O)c3ccc(-c4ccnc(OCCN5CCCC5)n4)cc3)cc12` returned a melting point of 104 to 105 °C. In the case of `COc1ccc(C2=C(c3c[nH]c4ccccc34)C(=O)NC2=O)cc1OC`, the melting point amounted to 210 °C. To `O=C1COCC(=O)NCCOCCN1` belongs 180 to 181 °C; to `O=C(CCNc1c(C(=O)O)[nH]c2cc(Cl)cc(Cl)c12)c1ccc(Cl)cc1`, 279 to 283 °C; to `NC(=O)C(Nc1ccccc1[N+](=O)[O-])c1c(Cl)cccc1Cl` (stereo not given), 182 °C. On to `COc1ccc(OCc2c(C)cncc2C)c2[nH]c(C3CC3)nc12`, for which the melting point was 152 to 155 °C. To `CCOC(=NS(=O)(=O)c1ccccc1)N1Cc2ccccc2-c2ccccc2C1` belongs 146 to 150 °C; to `NC(=O)c1cccc(-c2cccc3sc(Cc4ccc(F)c(F)c4)cc23)c1`, 189 to 190 °C; to `CC1(C)C(c2ccc(O)cc2)C1(Cl)Cl` (stereo not given), 111 to 112 °C. As to `CS(=O)(=O)Nc1cc(-c2ncc(C(F)(F)F)cc2Cl)ccc1Cl`, the melting point lay in the range of 133 to 134 °C. With `O=S1(=O)CCc2nn(-c3ccc(Cl)cc3)c(Br)c2C1` the figure was 138 to 145 °C; with `Cc1ccc(S(=O)(=O)OCCc2c(C)nc3cc(C)ccn3c2=O)cc1`, 128 °C; with `CC1CC(=O)NN=C1c1ccc(C(=O)OC2CCCC2)cc1` (stereo not given), 120 to 122 °C. With `CC(C)Sc1cn(C)cc(-c2ccc(Cl)c(C(F)(F)F)c2)c1=O`, the melting point lay within 127 to 129 °C. With `O=C(O)c1ccccc1-c1ccc([N+](=O)[O-])cn1` the figure was 262 to 264 °C; with `C#CCn1cc(F)cnc1=O`, 107 to 108 °C. To `O=C1c2ccccc2C(=O)N1Cc1ncc(C(F)(F)F)cc1Cl` belongs 145 to 146 °C; to `O=Cc1scc2c3ccccc3c3ccccc3c12`, 198 to 199 °C; to `CS(=O)(=O)N(c1ccc(C#Cc2cnn3c(C(F)(F)F)cc(-c4ccc(C(F)(F)F)cc4)nc23)cn1)S(C)(=O)=O`, 250 to 251 °C. With `O=c1c(-c2ccccc2)ccc2n1CCc1ccsc1-2` the figure was 133 to 134 °C; with `O=C1NC(=O)C(S(=O)(=O)c2ccc(F)cc2)S1` (stereo not given), 190 to 196 °C; with `C(#Cc1ccsc1)C1=CCN(Cc2c[nH]c3ncccc23)CC1`, 203 to 205 °C. `Cc1c(C)c2c(c(C)c1O)SC(CCC(N)=O)O2` (stereo not given) came in with a melting point of 160 to 161 °C.

With `COC(=O)c1ccc(O)cc1NC(=O)NS(=O)(=O)c1ccc(Cl)cc1`, the melting point was in the range of 244 to 248 °C. With `COc1ccc(C(=O)Nc2ccc(-c3ccc(-c4noc(C)n4)cc3C)cc2)cc1CCCN(C)C`, the melting point lay within 163 to 165 °C. With `CCCC(O)(C=Cc1ccccc1)CC(=O)OC` (stereo not given) the figure was 43 °C. In turn, `CC(C)NC(=S)NCc1c(Cl)ccc(C(=O)O)c1Cl` registered a melting point of over 220 °C. With `N#Cc1ccc(NC(=O)[C@H]2NCC[C@@H]2O)c2ccccc12` the figure was 174 to 176 °C; with `O=C(Cc1ccccc1)CC1c2ccccc2C(=O)N1c1ccc2ccc(Cl)nc2n1` (stereo not given), 182 °C; with `CCCOc1cc(COc2c(CC)cccc2CC(=O)O)n(Cc2ccc3ccccc3n2)n1`, 110 to 111 °C. With `O=C1CCN(C(=O)C(F)(F)F)CC1`, the melting point is 68 °C. In turn, `CCCc1nc2c(N)nc3cccnc3c2n1CCCC(C)N(OC)C(C)=O` (stereo not given) showed a melting point of 158 to 159 °C. Compound `Cc1coc(NC(=O)C2c3ccccc3Oc3ccccc32)n1` gave a melting point of 219 to 222 °C. As to `CS(=O)(=O)NCCCn1c(-c2ccc(Br)cc2)csc1=Nc1ccccc1`, the melting point fell in the range of 128 to 134 °C. Compound `COc1ccc2c(c1CC1CCCC1)CC[N+]([O-])=C2Cc1c(Cl)cncc1Cl` gave a melting point of 176 to 178 °C. With `Cc1cccc(COn2nnc3ccc(Cn4ccnc4)cc32)c1` the figure was 120 °C. To `O=C1NC[C@@H]2CCCC[C@@H]12` (relative stereo) belongs 85 to 88 °C; to `CC(=O)OCc1ccc2sc(S(N)(=O)=O)cc2c1`, 113 to 115 °C. Consider `N#Cc1cnc(-c2ccccc2OCC2CC2)[nH]c1=O`, for which the melting point was 188 to 190 °C. With `O=[N+]([O-])c1cc(OCCCl)ccc1Cl` the figure was 46 to 48 °C. As to `CCc1cn(C(C)C(=O)N(C)C)nc1-c1ccccc1` (stereo not given), the melting point was in the range of 73.5 to 75 °C. With `Cn1ncc2c1-c1c(Cc3ccccc3)sc(C(N)=O)c1CC2` the figure was 96 to 97 °C.
